Results from patent publication US20260098026A1, “M4 ACTIVATORS/MODULATORS AND USES THEREOF” (Cerevel Therapeutics, LLC, priority 2022, published 2026).

Columns and labels:
[1] = biological target: T1, M4 mAChR (Homo sapiens, UniProt P08173); test: cAMP TR-FRET assay with forskolin, M4-overexpressing CHO-K1 cells; type: cell-based
T1 construct: expressed in transfected cells; host or cells: CHO-K1
T1 sequence (P08173 1-479): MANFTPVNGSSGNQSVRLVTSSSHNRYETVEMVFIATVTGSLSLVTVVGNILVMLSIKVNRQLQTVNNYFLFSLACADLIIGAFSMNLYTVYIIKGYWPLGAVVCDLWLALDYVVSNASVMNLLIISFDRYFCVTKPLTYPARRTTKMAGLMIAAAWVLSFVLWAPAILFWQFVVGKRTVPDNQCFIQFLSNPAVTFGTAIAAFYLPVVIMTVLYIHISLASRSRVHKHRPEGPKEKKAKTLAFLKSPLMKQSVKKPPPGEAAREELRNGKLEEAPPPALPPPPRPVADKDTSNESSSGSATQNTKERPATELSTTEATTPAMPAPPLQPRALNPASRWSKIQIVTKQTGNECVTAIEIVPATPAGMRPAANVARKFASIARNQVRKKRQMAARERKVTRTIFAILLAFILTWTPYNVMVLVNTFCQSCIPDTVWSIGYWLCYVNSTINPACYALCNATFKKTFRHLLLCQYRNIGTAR
Excerpt: The M2 and M4 mACh receptors are Gi-coupled receptors which, upon activation, produce a decrease in cAMP. Assays were developed that measured the potency and efficacy of compounds at the M2 or M4 mAChR using M2- or M4-overexpressing CHO-K1 cell lines. Time-resolved fluorescence resonance energy transfer (TR-FRET) technology was used, where signal occurs as a result of transfer of energy if the donor molecule is in close proximity to an acceptor molecule when the molecules have bound to the molecule of interest. The cAMP detection is a competition binding assay, where cAMP produced by cells competes for binding with the labeled donor molecule to the anti-cAMP acceptor antibody. Due to the low basal levels of cAMP in the CHO-K1 cell line, forskolin was used to increase cAMP levels to enable assessment of agonist activity at the mAChR of interest.

[2] = biological target: T2, M3 muscarinic acetylcholine receptor (mAChR) (Homo sapiens, UniProt P20309); test: FLIPR calcium assay (Fluo 8), M3-overexpressing CHO-K1 cells; type: cell-based
T2 construct: expressed in transfected cells; host or cells: CHO-K1
Method: Stimulation of a Gq-coupled G-protein coupled receptors (GPCRs), result in an efflux of calcium from the endoplasmic reticulum to the cytoplasm (Berridge, 1993), thus rendering this assay appropriate for the assessment of M1, M3 and M5 receptors. CHO-K1 cells overexpressing the M1, M3, or M5 muscarinic acetylcholine receptor (mAChR) were dispensed at 15,000 cells per well in 30 μl volume to 384-well plates and grown overnight at 37° C. in a 5% CO2 atmosphere. Fluo-8 Solution, 10 μl per well, was added to each well and incubated for 30 minutes at 37° C. in a 5% CO2 atmosphere. Compounds diluted in Hanks' balanced salt solution (HBSS) were transferred to the cell assay plate at 10 μl per well, and then read on a FLIPR instrument. EC50 and Emax figures were calculated from the resulting data for each receptor subtype.

T2 sequence (P20309 whole entry): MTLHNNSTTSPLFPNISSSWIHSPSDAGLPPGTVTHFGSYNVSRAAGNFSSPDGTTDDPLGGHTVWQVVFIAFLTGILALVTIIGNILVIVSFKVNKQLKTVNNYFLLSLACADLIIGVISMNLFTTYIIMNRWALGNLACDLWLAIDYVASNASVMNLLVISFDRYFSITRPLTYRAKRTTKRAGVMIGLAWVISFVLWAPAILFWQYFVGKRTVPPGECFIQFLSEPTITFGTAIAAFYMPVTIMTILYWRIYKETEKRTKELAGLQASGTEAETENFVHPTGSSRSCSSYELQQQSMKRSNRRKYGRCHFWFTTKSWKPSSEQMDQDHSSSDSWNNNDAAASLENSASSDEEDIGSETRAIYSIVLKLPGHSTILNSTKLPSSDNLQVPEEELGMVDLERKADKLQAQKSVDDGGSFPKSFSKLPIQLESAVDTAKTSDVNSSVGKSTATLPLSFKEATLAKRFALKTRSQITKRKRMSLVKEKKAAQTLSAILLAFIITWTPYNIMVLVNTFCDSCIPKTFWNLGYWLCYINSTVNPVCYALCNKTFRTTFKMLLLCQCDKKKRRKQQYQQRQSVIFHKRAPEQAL

Structure (SMILES)	Emax ([1]; cAMP assay)	EC50 ([2]; FLIPR)	Emax ([1]; cAMP TR-FRET with forskolin)	EC50 ([2]; FLIPR calcium)
CCOC(=O)N1CC2(CC[C@@H](N3CCN(c4cc(F)cnc4-c4ccc(F)c(O)c4)CC3)C2)C1 [Compound A156]	80 to 100%	> 10 µM		
CCOC(=O)N1CC2(CC[C@@H](N3CCN(c4cc(F)cnc4-c4cnc(C)cn4)CC3)C2)C1 [Compound A231]	50 to 79.9%	> 10 µM		
CCOC(=O)N1CC2(CC[C@@H](N3CCN(c4cc(F)cnc4-c4cn(C)c5ncccc45)CC3)C2)C1 [Compound A164]	50 to 79.9%	> 10 µM		
CCOC(=O)N1CC2(CC[C@@H](N3CCN(c4cc(F)cnc4-c4ccnc(F)c4C)CC3)C2)C1 [Compound A114]			80 to 100%	> 10 µM
CCOC(=O)N1CC2(CC[C@@H](N3CCN(c4cc(F)cnc4-c4cc(C)cnc4F)CC3)C2)C1 [Compound A108]			80 to 100%	> 10 µM
CCOC(=O)N1CC2(CC[C@@H](N3CCN(c4cc(F)cnc4-c4ccnc(OC)c4F)CC3)C2)C1 [Compound A106]			80 to 100%	> 10 µM
CCOC(=O)N1CC2(CCC(N3CCN(c4cccnc4N4CCC(C#N)CC4)CC3)C2)C1 (stereo not drawn) [Compound A217]	80 to 100%	> 10 µM		
CCOC(=O)N1CC2(CC[C@@H](N3CCN(c4cc(F)cnc4-c4ccc(O)cc4F)CC3)C2)C1 [Compound A136]			80 to 100%	> 10 µM
CCOC(=O)N1CC2(CC[C@@H](N3CCN(c4cc(Cl)cnc4-c4cccnn4)CC3)C2)C1 [Compound A245]	80 to 100%	> 10 µM		
CCOC(=O)N1CC2(CC[C@@H](N3CCN(c4cc(F)cnc4-c4cccc(F)n4)CC3)C2)C1 [Compound A128]			80 to 100%	> 10 µM
CCOC(=O)N1CC2(CC[C@@H](N3CCN(c4cc(F)cnc4-c4ccc(C#N)nc4)CC3)C2)C1 [Compound A29]			80 to 100%	> 10 µM
CCOC(=O)N1CC2(CC[C@@H](N3CCN(c4cc(F)cnc4-c4cccc(F)c4CO)CC3)C2)C1 [Compound A162]	80 to 100%	> 10 µM		
CCOC(=O)N1CC2(CC[C@@H](N3CCN(c4cc(F)cnc4-c4cccc5ncnn45)CC3)C2)C1 [Compound A178]	19 to 49.9%	> 10 µM		
CCOC(=O)N1CC2(CC[C@@H](N3CCN(c4cc(F)cnc4-c4cc(O)ncc4F)CC3)C2)C1 [Compound A175]	80 to 100%	> 10 µM		
CCOC(=O)N1CC2(CC[C@@H](N3CCN(c4cc(F)cnc4-c4ccc(OCC)nc4)CC3)C2)C1 [Compound A107]			80 to 100%	> 10 µM
CCOC(=O)N1CC2(CC[C@@H](N3CCN(c4cc(F)cnc4-c4ccnc(F)n4)CC3)C2)C1 [Compound A284]	80 to 100%	> 10 µM		
CCOC(=O)N1CC2(CC[C@@H](N3CCN(c4cc(Cl)cnc4-c4ccc(F)cn4)CC3)C2)C1 [Compound A252]	80 to 100%	> 10 µM		
CCOC(=O)N1CC2(CC[C@@H](N3CCN(c4cc(F)cnc4-c4cccc(O)c4)CC3)C2)C1 [Compound A32]			80 to 100%	> 10 µM
CCOC(=O)N1CC2(CC[C@@H](N3CCN(c4cc(F)cnc4-c4ccc(OC)nc4F)CC3)C2)C1 [Compound A180]	80 to 100%	> 10 µM		
CCOC(=O)N1CC2(CC[C@@H](N3CCN(c4cc(F)cnc4-c4ccc(OC)c(F)c4)CC3)C2)C1 [Compound A112]			80 to 100%	> 10 µM
CCOC(=O)N1CC2(CC[C@@H](N3CCN(c4cc(F)cnc4-c4ccc5c(c4)OCCN5)CC3)C2)C1 [Compound A95]			80 to 100%	> 10 µM
CCOC(=O)N1CC2(CC[C@@H](N3CCN(c4cc(F)cnc4-c4cccn(C)c4=O)CC3)C2)C1 [Compound A203]	19 to 49.9%	> 10 µM		

Structure (SMILES)	Emax ([1]; cAMP assay)	EC50 ([2]; FLIPR)	Emax ([1]; cAMP TR-FRET with forskolin)	EC50 ([2]; FLIPR calcium)
CCOC(=O)N1CC2(CC[C@@H](N3CCN(c4cc(F)cnc4-c4cnn(C(C)C)c4)CC3)C2)C1 [Compound A195]	50 to 79.9%	> 10 µM		
CCOC(=O)N1CC2(CC[C@@H](N3CCN(c4cc(F)cnc4-c4ccn5ncnc5c4)CC3)C2)C1 [Compound A177]	80 to 100%	> 10 µM		
CCOC(=O)N1CC2(CC[C@@H](N3CCN(c4cc(F)cnc4-c4cccc(F)c4O)CC3)C2)C1 [Compound A118]			80 to 100%	> 10 µM
CCOC(=O)N1CC2(CC[C@@H](N3CCN(c4cc(F)cnc4-c4cnn(C(F)(F)F)c4)CC3)C2)C1 [Compound A285]	80 to 100%	> 10 µM		
CCOC(=O)N1CC2(C[C@H](N3CCN(c4cccnc4-c4nncs4)CC3)CO2)C1 [Compound A237]		> 10 µM		
CCOC(=O)N1CC2(CC(N3[C@@H]4CC[C@H]3CN(c3cc(F)cnc3-c3cnccn3)C4)CS2)C1 (single isomer, unassigned) [Compound A219]	< 19%	> 10 µM		
CCOC(=O)N1CC2(CC[C@@H](N3CCN(c4cc(F)cnc4-c4cncc(N)c4)CC3)C2)C1 [Compound A174]	80 to 100%	> 10 µM		
CCOC(=O)N1CC2(CC[C@@H](N3CCN(c4cc(F)cnc4-c4c(C)noc4C)CC3)C2)C1 [Compound A78]			80 to 100%	> 10 µM
CCOC(=O)N1CC2(CC[C@@H](N3CCN(c4cc(F)cnc4-c4cncc(OC)c4)CC3)C2)C1 [Compound A36]			80 to 100%	> 10 µM
CCOC(=O)N1CC2(CC[C@@H](N3CCN(c4cc(Cl)cnc4-n4cc(C)nn4)CC3)C2)C1 [Compound A247]	80 to 100%	> 10 µM		
CCOC(=O)N1CC2(CC[C@@H](N3CCN(c4cc(F)cnc4-c4ccncc4F)CC3)C2)C1 [Compound A45]			80 to 100%	> 10 µM
CCOC(=O)N1CC2(CCC(N3[C@@H]4CC[C@H]3CN(c3cc(F)cnc3-c3cnccn3)C4)C2)C1 (single isomer, unassigned) [Compound A222]		> 10 µM		
CCOC(=O)N1CC2(CC[C@@H](N3CCN(c4cc(Cl)cnc4-c4ccnc(C)n4)CC3)C2)C1 [Compound A248]		> 10 µM		
CCOC(=O)N1CC2(CC[C@@H](N3CCN(c4cc(F)cnc4-c4cccc5cn(C)nc45)CC3)C2)C1 [Compound A66]				> 10 µM
CCOC(=O)N1CC2(CC[C@@H](N3CCN(c4cc(F)cnc4-c4ccn(COCC[Si](C)(C)C)n4)CC3)C2)C1 [Compound A196]		> 10 µM		
CCOC(=O)N1CC2(CC[C@@H](N3CCN(c4cc(F)cnc4-c4cc(F)cnc4F)CC3)C2)C1 [Compound A232]		> 10 µM		
CCOC(=O)N1CC2(CC(N3[C@@H]4CC[C@H]3CN(c3cc(F)cnc3-c3cnccn3)C4)CS2)C1 (single isomer, unassigned) [Compound A220]		> 10 µM		
CCOC(=O)N1CC2(CCC(N3CCN(c4cc(F)cnc4-c4cnccn4)CC3)CC2)C1 [Compound A224]		> 10 µM		
CCOC(=O)N1CC2(CC[C@@H](N3CCN(c4cc(F)cnc4-c4ccc(=O)n(C(C)C)c4)CC3)C2)C1 [Compound A149]		> 10 µM		
CCOC(=O)N1CC2(CC[C@@H](N3CCN(c4cccnc4OC4CCC4)CC3)C2)C1 [Compound A5, (R)-ethyl 6-(4-(2-cyclobutoxypyridin-3-yl)piperazin-1-yl)-2-azaspiro[3.4]octane-2-carboxylate]				> 10 µM
CCOC(=O)N1CC2(CC[C@@H](N3CCN(c4cc(F)cnc4-c4ccccc4C(=O)NC)CC3)C2)C1 [Compound A151]		> 10 µM		
